Assay results from ChEMBL document CHEMBL1156289, “Potent and selective inhibition of human cytochrome P450 3A4 by seco-pancratistatin structural analogs” (Bioorg Med Chem Lett, 2010).
The source made the active and inactive calls. The rule behind the calls is not given here.

Tests used:
MCF7 = assay: Cytotoxicity against human MCF7 cells at 10 uM; type: functional, cell-based
Cytochrome P450 3A4 [1] = molecular target: T1, Cytochrome P450 3A4 (Homo sapiens, UniProt P08684); assay: Inhibition of human recombinant CYP3A4 assessed as biotransformation of […] measured every minute for 15 mins by fluorescence intensity assay; type: ADME
Cytochrome P450 3A4 [2] = molecular target: T1, Cytochrome P450 3A4; assay: Inhibition of human recombinant CYP3A4 assessed as biotransformation of […] at 10 uM measured every minute for 15 mins by fluorescence intensity assay; type: ADME

T1 sequence (P08684 whole entry): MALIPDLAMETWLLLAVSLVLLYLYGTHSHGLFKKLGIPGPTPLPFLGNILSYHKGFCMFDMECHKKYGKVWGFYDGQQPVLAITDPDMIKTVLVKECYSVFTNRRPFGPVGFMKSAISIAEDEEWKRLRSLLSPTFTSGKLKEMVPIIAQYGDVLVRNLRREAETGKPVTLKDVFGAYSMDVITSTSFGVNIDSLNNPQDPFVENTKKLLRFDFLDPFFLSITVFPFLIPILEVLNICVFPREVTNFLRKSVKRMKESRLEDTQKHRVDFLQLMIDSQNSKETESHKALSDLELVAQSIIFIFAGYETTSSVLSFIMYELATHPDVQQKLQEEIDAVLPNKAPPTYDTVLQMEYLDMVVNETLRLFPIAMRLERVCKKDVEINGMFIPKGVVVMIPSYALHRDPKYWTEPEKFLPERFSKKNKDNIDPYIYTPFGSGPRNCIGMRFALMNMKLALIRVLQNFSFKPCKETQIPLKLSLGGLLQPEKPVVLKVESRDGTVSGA

O=C(NC[C@H](c1ccc2c(c1)OCO2)[C@H](O)[C@H](O)[C@@H](O)CO)c1ccccc1
Activity (MCF7): inactive

COCO[C@H]([C@@H]1OC(C)(C)O[C@H]1CO)[C@H](CNC(=O)c1ccccc1)c1ccc2c(c1)OCO2
Ki (Cytochrome P450 3A4 [1]): 1780 nM | Activity (MCF7): inactive

COCO[C@H]([C@@H]1OC(C)(C)O[C@H]1CO[Si](C)(C)C(C)(C)C)[C@H](CN=[N+]=[N-])c1ccc2c(c1)OCO2
Activity (MCF7): inactive | Ki (Cytochrome P450 3A4 [2]): Not Active

CC1(C)O[C@@H]([C@H](O)[C@@H](CNC(=O)c2ccccc2)c2ccc3c(c2)OCO3)[C@H](CO)O1
Activity (MCF7): inactive

COCO[C@@H]([C@@H]1OC(C)(C)O[C@H]1COC(C)=O)[C@@H](CNC(=O)c1ccccc1)c1ccc2c(c1)OCO2
Activity (MCF7): inactive

COCO[C@@H]([C@@H]1OC(C)(C)O[C@H]1CO[Si](c1ccccc1)(c1ccccc1)C(C)(C)C)[C@@H](CNC(=O)c1ccccc1)c1ccc2c(c1)OCO2
Activity (MCF7): inactive

COCO[C@@H]([C@@H]1OC(C)(C)O[C@H]1COS(=O)(=O)c1ccc(C)cc1)[C@@H](CNC(=O)c1ccccc1)c1ccc2c(c1)OCO2
Activity (MCF7): inactive

O=C(NC[C@@H](c1ccc2c(c1)OCO2)[C@@H](O)[C@H](O)[C@@H](O)CO)c1ccccc1
Activity (MCF7): inactive

COCO[C@@H]([C@@H]1OC(C)(C)O[C@H]1CO)[C@@H](CNC(=O)c1ccccc1)c1ccc2c(c1)OCO2
Activity (MCF7): inactive

COCO[C@@H]([C@@H]1OC(C)(C)O[C@H]1CO[Si](C)(C)C(C)(C)C)[C@@H](CNC(=O)OC(C)(C)C)c1ccc2c(c1)OCO2
Activity (MCF7): inactive

CC(C)OC(=O)[C@H](c1ccc2c(c1)OCO2)[C@H](O)[C@@H]1OC(C)(C)O[C@H]1CO[Si](C)(C)C(C)(C)C
Ki (Cytochrome P450 3A4 [2]): Not Active

COCO[C@H]([C@@H]1OC(C)(C)O[C@H]1CO[Si](C)(C)C(C)(C)C)[C@H](CNC(=O)c1ccccc1)c1ccc2c(c1)OCO2
Ki (Cytochrome P450 3A4 [1]): 30 nM | Activity (MCF7): inactive

COCO[C@H]([C@@H]1OC(C)(C)O[C@H]1CO[Si](C)(C)C(C)(C)C)[C@H](CNC(=O)OC(C)(C)C)c1ccc2c(c1)OCO2
Ki (Cytochrome P450 3A4 [1]): 240 nM | Activity (MCF7): inactive

COCO[C@H]([C@@H]1OC(C)(C)O[C@H]1COS(=O)(=O)c1ccc(C)cc1)[C@H](CNC(=O)c1ccccc1)c1ccc2c(c1)OCO2
Ki (Cytochrome P450 3A4 [1]): 70 nM | Activity (MCF7): inactive

COCO[C@H]([C@@H]1OC(C)(C)O[C@H]1CO[Si](C)(C)C(C)(C)C)[C@H](CO)c1ccc2c(c1)OCO2
Ki (Cytochrome P450 3A4 [2]): Not Active

COCO[C@@H]([C@@H]1OC(C)(C)O[C@H]1CO[Si](C)(C)C(C)(C)C)[C@@H](CNC(=O)c1ccccc1)c1ccc2c(c1)OCO2
Activity (MCF7): inactive

CC1(C)O[C@@H]([C@H](O)[C@@H](CNC(=O)c2ccccc2)c2ccc3c(c2)OCO3)[C@H](CO[Si](C)(C)C(C)(C)C)O1
Activity (MCF7): inactive
